Laboratory results: patent US12502440B2, “Cross-linking compounds and methods of use thereof” (North Carolina State University, priority 2019, dated 2025)
Several values for one entry are separate records, joined by “and”; a condition that tells them apart may be missing. Equal entries are not always repeated.

What was measured:
Format in all cases: biochemical
[1] = tested on: β-glucosidase from almonds; experiment: Indigogenic reaction with β-glucosidase from almonds
[2] = tested on: rat liver homogenate; experiment: Indigoid-dye formation in rat liver homogenate; settings: indoxyl 1 mM in rat liver homogenate, 5% DMF, 37° C., 24 h; ε = 1.27 × 10^4 M^−1 cm^−1 measured for 4
Description: Finally, indigoid-dye formation was carried out in rat liver homogenate (Table 1, rightmost column).
Reactions in rat liver homogenate. An indoxyl compound in DMF (5 μL, 20 mM) was mixed with rat liver homogenate (95 μL). The reaction mixture was incubated at 37° C. for 24 h. After allowing to cool to room temperature, the reaction mixture was diluted with DMF (900 μL). The mixture was heated at 70° C. for 2 min and then centrifuged for 2 min. The supernatant was separated from any precipitate. This extraction procedure was repeated two or three times with DMF (100-500 μL). The combined supernatant (1500-1800 μL) was analyzed by absorption spectroscopy.

[3] = biological target: T1, β-glucosidase from Agrobacterium (Agrobacterium sp., UniProt P12614); experiment: Indigogenic reaction with β-glucosidase from Agrobacterium
T1 construct: purchased Megazyme
T1 sequence (P12614 1-459): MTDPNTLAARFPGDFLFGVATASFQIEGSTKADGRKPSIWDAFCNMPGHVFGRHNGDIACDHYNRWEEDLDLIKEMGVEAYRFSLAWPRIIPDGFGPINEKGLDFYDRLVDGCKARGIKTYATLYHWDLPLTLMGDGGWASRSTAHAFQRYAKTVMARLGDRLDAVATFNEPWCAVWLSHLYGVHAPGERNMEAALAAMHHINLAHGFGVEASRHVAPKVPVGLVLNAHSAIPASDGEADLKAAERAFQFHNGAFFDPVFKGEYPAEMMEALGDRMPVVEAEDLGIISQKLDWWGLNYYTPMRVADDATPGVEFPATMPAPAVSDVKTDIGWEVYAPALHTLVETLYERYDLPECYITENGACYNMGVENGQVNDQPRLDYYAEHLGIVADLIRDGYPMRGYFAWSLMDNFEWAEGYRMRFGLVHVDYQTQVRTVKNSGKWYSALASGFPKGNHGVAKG
Description: Next, the β-glucosidase from Agrobacterium sp. was investigated as the trigger enzyme for indigoid dye formation. […] The reaction was carried out using the enzyme (200 nM) and indoxyl-glucoside 33 (100 μM) in phosphate buffer (pH 4-9, containing 2% DMF) at 37° C. […] Note that with 200 nM enzyme and 100 μM substrate, complete reaction requires 500 turnovers of each enzyme.
Reactions with β-glucosidase from Agrobacterium. An indoxyl compound in DMF (2 μL, 5 mM) and β-glucosidase from Agrobacterium in 10 mM phosphate buffer [2 μL, 10 μM, pH 7.0, containing 50 mM NaCl and 0.6 M (NH4)2SO4] were mixed with 50 mM phosphate buffer (96 μL, pH 7.0). The reaction mixture was incubated at 37° C. for 2 h and then centrifuged for 3 min. Any precipitate was separated from the supernatant and dissolved in DMF (200 μL). The resulting solution was analyzed by absorption spectroscopy. The experiment was repeated three times.

[4] = indoxyl 1 mM, enzyme 1 unit/mL, 0.01M acetate buffer pH 5, 5% DMF, 37° C., 16-19 h, ε = 1.27 × 10^4 M^−1 cm^−1 measured for 4
[5] = indoxyl 100 μM, enzyme 200 nM, 0.05M phosphate buffer pH 7.0, 2% DMF, 37° C., 2 h, three repeats, ε = 1.27 × 10^4 M^−1 cm^−1 measured for 4
[6] = as E4 but ε measured for 43 (footnote g)
[7] = as E1 but ε measured for 43 (footnote g)

5-[(Benzylcarbamoyl)oxy)]-1H-indole-3-yl β-D-glucopyranoside [compound 16]
Yield (%) of indigoid dye, β-glucosidase from almonds [1, 4]: 24%
Yield (%) of indigoid dye, rat liver homogenate [2]: 9%

5-bromo-4-chloroindoxyl β-glucoside [compound 42, reference compound]
Yield (%) of indigoid dye, β-glucosidase from almonds ([1]; as E1 but ε = 2.00 × 10^4 M^−1 cm^−1 reported for 5,5′-dibromo-4,4′-dichloroindigo (footnote e)): 74% and 74^e %
Yield (%) of indigoid dye, rat liver homogenate [2]: 65%
Yield (%) of indigoid dye, β-glucosidase from Agrobacterium ([3]; as E4 but ε = 2.00 × 10^4 M^−1 cm^−1 reported for 5,5′-dibromo-4,4′-dichloroindigo (footnote e)): 116% and 116 ± 8^e %

COc1nc(Oc2ccc3[nH]cc(O[C@@H]4O[C@H](CO)[C@@H](O)[C@H](O)[C@H]4O)c3c2)nc(N2CCOCC2)n1 [compound 19, 5-[(4-Methoxy-6-morpholino-1,3,5-triazin-2-yl)oxy]-1H-indole-3-yl β-D-glucopyranoside]
Yield (%) of indigoid dye, β-glucosidase from almonds [1, 4]: <1%
Yield (%) of indigoid dye, rat liver homogenate [2]: <5%
Yield (%) of indigoid dye, β-glucosidase from Agrobacterium [3, 5]: 46 + 5%

COc1nc(Oc2ccc3[nH]cc(O[C@@H]4O[C@H](CO)[C@@H](O)[C@H](O)[C@H]4O)c3c2Br)nc(N2CCOCC2)n1 [compound 20, 4-Bromo-5-[(4-methoxy-6-morpholino-1,3,5-triazin-2-yl)oxy]-1H-indole-3-yl β-D-glucopyranoside]
Yield (%) of indigoid dye, rat liver homogenate [2]: <5%
Yield (%) of indigoid dye, β-glucosidase from Agrobacterium [3, 5]: 150 ± 3%

COc1nc(Oc2c(Br)cc3[nH]cc(O[C@@H]4O[C@H](CO)[C@@H](O)[C@H](O)[C@H]4O)c3c2Br)nc(N2CCOCC2)n1 [compound 21, 4,6-Dibromo-5-[(4-methoxy-6-morpholino-1,3,5-triazin-2-yl)oxy]-1H-indole-3-yl β-D-glucopyranoside]
Yield (%) of indigoid dye, rat liver homogenate [2]: <5%
Yield (%) of indigoid dye, β-glucosidase from Agrobacterium [3, 6]: 31 ± 2%
Yield (%) of indigoid dye, β-glucosidase from Agrobacterium [3, 5]: 63 ± 4%

COC(=O)COc1ccc2[nH]cc(OC3O[C@H](CO)[C@@H](O)[C@H](O)[C@H]3O)c2c1 (stereo partly drawn) [compound 22, 5-(Methoxycarbonyl)methoxy-1H-indol-3-yl-D-glucopyranoside]
Yield (%) of indigoid dye, β-glucosidase from almonds [1, 4]: <1%
Yield (%) of indigoid dye, rat liver homogenate [2]: <5%
Yield (%) of indigoid dye, β-glucosidase from Agrobacterium [3, 5]: 30 ± 6%

COC(=O)COc1ccc2[nH]cc(O[C@@H]3O[C@H](CO)[C@@H](O)[C@H](O)[C@H]3O)c2c1Br [compound 23, 4-Bromo-5-(methoxycarbonyl)methoxy-1H-indol-3-yl β-D-glucopyranoside]
Yield (%) of indigoid dye, β-glucosidase from almonds [1, 4]: 68%
Yield (%) of indigoid dye, rat liver homogenate [2]: <5%
Yield (%) of indigoid dye, β-glucosidase from Agrobacterium [3, 5]: 84 ± 4%

COC(=O)COc1c(Br)cc2[nH]cc(O[C@@H]3O[C@H](CO)[C@@H](O)[C@H](O)[C@H]3O)c2c1Br [compound 24, 4,6-Dibromo-5-(methoxycarbonyl)methoxy-1H-indol-3-yl β-D-glucopyranoside]
Yield (%) of indigoid dye, β-glucosidase from almonds [1, 7]: 59%
Yield (%) of indigoid dye, β-glucosidase from almonds [1, 4]: 122%
Yield (%) of indigoid dye, rat liver homogenate [2]: <5%
Yield (%) of indigoid dye, β-glucosidase from Agrobacterium [3, 6]: 102 + 3%
Yield (%) of indigoid dye, β-glucosidase from Agrobacterium [3, 5]: 209 ± 6%

C#CCOc1ccc2[nH]cc(O[C@@H]3O[C@H](CO)[C@@H](O)[C@H](O)[C@H]3O)c2c1 [compound 25, 5-Propargyloxy-1H-indol-3-yl β-D-glucopyranoside]
Yield (%) of indigoid dye, β-glucosidase from almonds [1, 4]: <5%
Yield (%) of indigoid dye, rat liver homogenate [2]: 11%
Yield (%) of indigoid dye, β-glucosidase from Agrobacterium [3, 5]: 37 ± 2%

C#CCOc1ccc2[nH]cc(O[C@@H]3O[C@H](CO)[C@@H](O)[C@H](O)[C@H]3O)c2c1Br [compound 26, 4-Bromo-5-propargyloxy-1H-indol-3-yl β-D-glucopyranoside]
Yield (%) of indigoid dye, β-glucosidase from almonds [1, 4]: 56%
Yield (%) of indigoid dye, rat liver homogenate [2]: 17%
Yield (%) of indigoid dye, β-glucosidase from Agrobacterium [3, 5]: 79 ± 1%

C#CCOc1c(Br)cc2[nH]cc(O[C@@H]3O[C@H](CO)[C@@H](O)[C@H](O)[C@H]3O)c2c1Br [compound 27, 4,6-Dibromo-5-propargyloxy-1H-indol-3-yl β-D-glucopyranoside]
Yield (%) of indigoid dye, β-glucosidase from almonds [1, 7]: 51%
Yield (%) of indigoid dye, β-glucosidase from almonds [1, 4]: 105%
Yield (%) of indigoid dye, rat liver homogenate [2]: 50%
Yield (%) of indigoid dye, β-glucosidase from Agrobacterium [3, 6]: 89 ± 2%
Yield (%) of indigoid dye, β-glucosidase from Agrobacterium [3, 5]: 184 ± 3%

OC[C@H]1O[C@@H](Oc2c[nH]c3cc(Br)c(OC[C@@H]4[C@@H]5CCC#CCC[C@@H]54)c(Br)c23)[C@H](O)[C@@H](O)[C@@H]1O [compound 30, 5-{[(1R,8S,9s)-Bicyclo[6.1.0]non-4-yn-9-yl]methoxy}-4,6-dibromo-1H-indole-3-yl β-D-glucopyranoside]
Yield (%) of indigoid dye, β-glucosidase from Agrobacterium [3, 6]: 10% and 10 ± 0.4%
Yield (%) of indigoid dye, β-glucosidase from Agrobacterium [3, 5]: 21 ± 1%
